Bridges are numbered along the chain shown (N, C = ends). Where no end group is shown, it is not given here.
Key:
[1] = system: MCF-7 breast cancer cells; test: Wound healing (migration) assay, MCF-7; assay type: cell-based, human; settings: peptide 1 uM, re-applied every 2 h for 8 h
Protocol: FIGS. 13A-13D are micrographs showing the efficacy of TAT carrier peptide (TAT; FIG. 13A), αV5-3-TAT peptide (Alpha; FIG. 13B), βIIV5-3 peptide (Beta2; FIG. 13C), and εV1-2 (epsilon; FIG. 13D) on human MCF-7 breast cancer cell migration.
(§1) To investigate the role of PKC inhibitors in reducing the migration of tumor cells, in vitro migration assays were performed using MDA-MB-231 breast cancer cells (FIGS. 12A-12D), MCF-7 breast cancer cell (FIGS. 13A-13D), JC cells (FIGS. 15A-15D), and 4T1 cells (FIGS. 16A-16D), in the presence of TAT carrier peptide (TAT), αV5-3-TAT peptide (Alpha), βIIV5-3 peptide (Beta2), or εV1-2 peptide (Epsilon).
(§2) Wound healing assay: Human or mouse breast cancer cell lines were grown in 6-well plates until about 90% confluent. Cells were then grown in serum free media overnight, before media was changed to media +1% FBS and peptide PKC inhibitors added (1 uM), at the same time a pipette tip was drawn across the cell layer to create a scrape ‘wound’. PKC inhibitors were re-applied every 2 h for a total of 8 h, before cells were left for a further 12 h and then the scrape was examined under phase contrast microscopy.

[2] = system: MDA-MB-231 breast cancer cells; test: Wound healing (migration) assay, MDA-MB-231; assay type: cell-based, human; settings: peptide 1 uM, re-applied every 2 h for 8 h
Protocol: FIGS. 12A-12D are micrographs showing the efficacy of TAT carrier peptide (TAT; FIG. 12A), αV5-3-TAT peptide (Alpha; FIG. 12B), βIIV5-3 peptide (Beta2; FIG. 12C), and εV1-2 (Epsilon; FIG. 12D) on human MDA-MB-231 breast cancer cell migration.
as §1, §2

[3] = system: 4T1 murine mammary cancer cells; test: Lung metastasis of luciferase-tagged 4T1 tumors in mice, imaging (relative light units); assay type: in vivo; settings: 4T1-luciferase tumor-bearing mice, osmotic pump, about 35 mg/kg/day, four weeks
Protocol: To determine whether specific PKC inhibitors could reduce the amount of PKC translocation/activation in vivo and thereby reduce tumor cell metastasis, animals were administered an αPKC peptide inhibitor, or appropriate control, via an implanted osmotic pump, following the injection of luciferase-tagged tumor cells. […] The data are summarized in the bar graph shown in FIG. 4, along with similar data relating to the use of a βIIV5-3-TAT conjugate peptide (βPKC; SEQ ID NO: 27). The extent of lung metastasis is expressed as relative light units.
Balb/c female mice (6 weeks old) were injected semi-orthotopically with 4T1 murine mammary cancer cells tagged with luciferase ([…] cells/100 μL). One week later, an osmotic minipump was implanted subcutaneously in each animal, for delivery of saline (control), TAT peptide (control, YGRKKRRQRRR, SEQ ID NO: 25), the peptide inhibitor αV5-3 (QLVIAN, SEQ ID NO: 6) attached via an N-terminal disulfide bond to TAT peptide (YGRKKRRQRRR-CC-QLVIAN, SEQ ID NO: 26).
In other experiments, the peptide inhibitor βIIV5-3 (QEVIAN, SEQ ID NO: 13) or εV1-2 (EAVSLKPT, SEQ ID NO: 20) is attached via an N-terminal disulfide bond to the TAT peptide (SEQ ID NOs: 27 and 28, respectively). The TAT control, αV5-3-TAT, βIIV5-3-TAT, or εV1-2-TAT conjugate peptides are administered at about 35 mg/kg/day for two and four weeks.
After two weeks of treatment with αV5-3-TAT, some animals were selected form imaging (IVIS® 29, Xenogen Corporation, Alameda, Calif.) and analysis, with the remaining animals imaged after four weeks of treatment.
FIG. 4 is a bar graph showing the extent of lung metastasis, expressed as relative light units (based on imaging as exemplified in FIG. 3), in tumor-bearing mice treated for four weeks with saline, the αV5-3-TAT conjugate peptide (αPKC), or the βIIV5-3-TAT conjugate peptide (βPKC). The extent of lung metastasis, quantified approximately by the relative light units, for mice treated with saline, the αPKC inhibitor, and the βIIV5-3 PKC inhibitor peptide is shown. The extent of lung metastases is reduced in the animals treated with the αPKC inhibitor.

βIIPKC = biological target: T1, βIIPKC (Mus musculus, UniProt P68404); test: Translocation of βIIPKC in tumor cells (immunoblot of cytosol and particulate fractions); assay type: in vivo; settings: FIG. 5B
T1 construct: endogenous in cells; host or cells: 4T1 murine mammary tumour cells grown as tumours in Balb/c mice
Protocol: FIGS. 5A-5B are bar graphs showing the percentage of translocation of αPKC (FIG. 5A) and βIIPKC (FIG. 5B) […] in tumor cells treated with αV5-3-TAT peptide.
To further characterize inhibition of metastasis using the α and βIIPKC inhibitors, the percentage of translocation of αPKC (FIG. 5A) and βIIPKC (FIG. 5B), […] was measured.

JC cells = test: Wound healing (migration) assay, JC; assay type: cell-based, mouse; settings: peptide 1 uM, re-applied every 2 h for 8 h
Protocol: FIGS. 15A-15D are micrographs showing the efficacy of TAT carrier peptide (TAT; FIG. 15A), αV5-3-TAT peptide (Alpha; FIG. 15B), βIIV5-3 peptide (Beta2; FIG. 15C), and εV1-2 (Epsilon; FIG. 15D) on JC cell migration.
as §1, §2

[4] = system: MCF-7 breast cancer cells; test: Cell migration/invasion assay through a HUVEC monolayer, MCF-7; assay type: cell-based, human; settings: peptide 10 μM, re-applied every 2 hours for 10 hours
Description: (§3) FIGS. 14A and 14B are bar graphs showing the efficacy of TAT carrier peptide (TAT), αV5-3-TAT peptide (Alpha), βIIV5-3 peptide (Beta-2), and εV1-2 (Epsilon) in inhibiting the invasion of human MDA-MB-231 and MCF-7 breast cancer cells through a HUVEC monolayer. FIGS. 14C and 14D are bar graphs showing the efficacy of TAT carrier peptide (TAT) or αV5-3-TAT peptide in inhibiting the invasion of 4T1 (FIG. 11C) and MDA-MB-231 (FIG. 11D) cells.
FIGS. 14A and 14B show the results of a related experiment measuring the efficacy of TAT carrier peptide (TAT), αV5-3-TAT peptide (Alpha), βIIV5-3 peptide (Beta-2), and εV1-2 peptide (Epsilon) in inhibiting the invasion of human MDA-MB-231 and MCF-7 breast cancer cells through a HUVEC monolayer. […]
Cell Migration/invasion assay: Primary human endothelial cells (HUVEC's) were plated on top of a matrigel plug in trans-well plates. Once the cells had reached confluence (as determined by examination of a control well), 1×10^6 human breast cancer cells (MCF-7 or MDA-MB-231) expressing luciferase were added above the HUVEC cell layer. […] The relative numbers of cancer cells that had crossed the HUVEC cell layer and entered the matrigel was then determined by bioluminescence detection of luciferase action following addition of luciferin substrate.

[5] = system: MDA-MB-231 breast cancer cells; test: Cell migration/invasion assay through a HUVEC monolayer, MDA-MB-231; assay type: cell-based, human; settings: peptide 10 μM, re-applied every 2 hours for 10 hours
Description: as §3
as §3, with “14B show the results of a related experiment measuring” for “14B are bar graphs showing”, “εV1-2 peptide” for “εV1-2”, “14D show the results of a similar experiment” for “14D are bar graphs”
Cell Migration/invasion assay: Primary human endothelial cells (HUVEC's) were plated on top of a matrigel plug in trans-well plates. Once the cells had reached confluence (as determined by examination of a control well), 1×10^6 human breast cancer cells (MCF-7 or MDA-MB-231) expressing luciferase were added above the HUVEC cell layer. Where applicable, peptides were added to a final concentration of 10 μM and re-applied every 2 hours for 10 hours followed by further incubation. After 24-48 hours-incubation the HUVEC cell layer (and all other cells above the matrigel) were removed by scraping of the cell layer into the media and aspiration (repeated 3 times). The relative numbers of cancer cells that had crossed the HUVEC cell layer and entered the matrigel was then determined by bioluminescence detection of luciferase action following addition of luciferin substrate.

4T1 tumor cells = test: Growth of primary tumors in vivo (number of tumor cells at primary site of injection); parameters: species or system mice; settings: animals injected with 4T1 tumor cells, FIG. 6A, versus saline
Protocol: FIG. 6A is a bar graph showing the affect of saline, the αV5-3-TAT conjugate peptide (αPKC), or the βIIV5-3-TAT conjugate peptide (βPKC) on the growth rate of primary tumors in vivo.
To determine if the effects observed with the α and βIIPKC peptide inhibitors was due to a decrease in metastasis as opposed to a decrease in primary tumor growth, animals injected with 4T1 tumor cells were treated with saline, the αV5-3-TAT conjugate peptide (αPKC), or the βIIV5-3-TAT conjugate peptide (βPKC) and the number of tumors cells at the primary site of injection were determined.

T1 sequence (P68404 1-673 isoform P68404-2): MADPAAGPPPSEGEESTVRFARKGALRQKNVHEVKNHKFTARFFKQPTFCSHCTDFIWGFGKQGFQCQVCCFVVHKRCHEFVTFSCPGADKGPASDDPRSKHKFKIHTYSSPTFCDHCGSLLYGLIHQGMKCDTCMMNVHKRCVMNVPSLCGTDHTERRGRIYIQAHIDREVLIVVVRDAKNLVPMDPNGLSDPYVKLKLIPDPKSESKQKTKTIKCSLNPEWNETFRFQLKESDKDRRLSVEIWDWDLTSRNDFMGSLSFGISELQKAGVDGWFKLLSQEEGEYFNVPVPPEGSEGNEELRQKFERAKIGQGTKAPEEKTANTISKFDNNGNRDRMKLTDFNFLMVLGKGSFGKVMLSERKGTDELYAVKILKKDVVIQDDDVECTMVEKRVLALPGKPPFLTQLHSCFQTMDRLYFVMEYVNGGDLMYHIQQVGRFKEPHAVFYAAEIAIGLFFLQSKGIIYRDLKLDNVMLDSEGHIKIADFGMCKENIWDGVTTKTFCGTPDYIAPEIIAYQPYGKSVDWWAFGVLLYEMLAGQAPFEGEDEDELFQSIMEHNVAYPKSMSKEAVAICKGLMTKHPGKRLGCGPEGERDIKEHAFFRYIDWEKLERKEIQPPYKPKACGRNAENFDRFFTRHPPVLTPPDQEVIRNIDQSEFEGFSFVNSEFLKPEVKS

| Substance | migration of MCF-7 breast cancer cells ([1]; listed as βIIPKC inhibitor) | migration of MCF-7 breast cancer cells ([1]; listed as βIIV5-3 peptide) | migration of MDA-MB-231 breast cancer cells ([2]; listed as βIIPKC inhibitor) | migration of MDA-MB-231 breast cancer cells ([2]; listed as βIIV5-3 peptide) | effect on lung metastasis compared to control animals (in words) [3] | effect on lung metastasis compared to control animals (in words) ([3]; listed as βPKC inhibitor) | reduction of βIIPKC translocation (βIIPKC) | migration of JC cells (JC cells) | invasion of MCF-7 cells through a HUVEC monolayer [4] | invasion of MDA-MB-231 cells through a HUVEC monolayer [5] | reduction in the number of cells at the primary tumor site (4T1 tumor cells) |
| --- | --- | --- | --- | --- | --- | --- | --- | --- | --- | --- | --- |
| YGRKKRRQRRR-CC-CGRNAE (YGRKKRRQRRRCCCGRNAE; disulfide (positions not given here); also: TAT conjugated via disulfide, Cys pair not given here) [βIIV5-3-TAT] | reduced migration and invasion | reduced | reduced migration and invasion | reduced | less pronounced effect | about half | did not significantly reduce | reduced | reduced migration and invasion | reduced migration and invasion | no reduction |
| YGRKKRRQRRR-CC-EAVSLKPT (YGRKKRRQRRRCCEAVSLKPT; disulfide 12-13 (inferred)) [εV1-2-TAT] |  |  |  |  |  |  |  |  | reduce invasion | reduce invasion |  |

Reference: patent US20090137493A1, “Inhibition of tumor metastases using protein kinase C (PKC) inhibitors” (priority 2007, published 2009)
